Measurements published in patent publication US8093290B2, “Coolant solutions and compositions comprising the same” (Givaudan SA, priority 2002, dated 2012).

Test system: oral cavity
Test: observed area of the oral cavity affected by the coolant effect
Details: in vivo

CC1CCC(C(C)C)C(OC(=O)C(C)O)C1 (stereo not shown) [Menthyl lactate, menthyl lactate]
area of the oral cavity targeted by the coolant effect: front/middle of the mouth
